Assay results from publication PMC5341405, “Lapachol, a compound targeting pyrimidine metabolism, ameliorates experimental autoimmune arthritis” (Arthritis Research & Therapy, 2017).
Where two headings read alike, the source gives them in different places.

Assays:
human CD4 T cells = test: Annexin-V/propidium iodide staining for apoptotic cell death; assay type: cell-based; details: human CD4 T cells, 10, 30, and 100 μM
Experimental: We next assessed the antiproliferative effect of LAP. To this end, freshly isolated mouse CD4 T cells were labelled with Dye Efluor 670 and stimulated with anti-CD3/CD28 in the presence of LAP or LEF (10, 30, and 100 μM) for 4 days. […] We also investigated the effect of LAP in human CD4 T cells isolated from the peripheral blood of healthy donors. […] Additionally, we performed annexin-V/propidium iodide (PI) staining of human CD4 T cells treated with LAP or LEF to assess apoptotic cell death. […] Thus, the reduction of T-cell proliferation by LAP below 100 μM was primarily due to inhibition of the proliferative response rather than a reduction of cellular viability by toxicity.

[1] = Pharmacokinetics after oral administration; assay type: in vivo, Wistar rats; details: for AUC(0-inf) / k el / Cmax / MRT / Tmax / half-life: Wistar, rat, plasma; for AUC(0-inf): po; for k el: read-out: Ke (converted)
Experimental: For administration to Wistar rats, LAP was dissolved in DMSO:Tween 80:glucose 5% in a proportion of 15:5:80 (v/v/v), resulting in a solution of 1 mg/ml (for intravenous (i.v.) administration) and another of 5 mg/ml (for oral administration). LAP was administered to rats as an i.v. bolus dose at 2 mg/kg (n = 7) and at two oral doses of 10 (n = 8) and 25 mg/kg (n = 6). LAP salt was administered as i.v. (2 mg/kg, n = 6) and oral doses (30 mg/kg equivalent to 27.5 mg/kg of LAP, n = 8). The i.v. doses were injected into the lateral tail vein, and oral doses were given by gavage. The doses were chosen based on previous toxicological and pharmacodynamic studies. At predetermined time points (30 min before dosing and at 0.08, 0.25, 0.5, 1, 2, 4, 6, 8, 12, and 24 h) after LAP i.v. administration, blood samples (200–250 μl) were withdrawn into heparinized tubes via puncture of the lateral tail vein, opposite to the vein used for drug dosing. The same procedure was carried out after oral administration of LAP, with blood sampling at 0.25, 0.5, 1, 1.5, 2, 3, 6, 12, 24, and 30 h. After LAP sodium salt i.v. and oral dosing, blood samples were harvested up to 10 and 12 h, respectively. Plasma was obtained by centrifugation of blood samples (6800 × g, at 4 °C for 10 min) and stored at –80 °C until analysis by UPLC-MS/MS.
LAP and LAP sodium salt pharmacokinetic parameters after i.v. and oral administration were determined from individual plasma profiles by a noncompartmental approach (NCA). The peak plasma concentration (Cmax) and the time of maximum concentration (Tmax) were obtained by visual inspection of the data from the plasma concentration–time curve after oral dosing. Pharmacokinetic parameters such an elimination rate constant (λ), area under the curve (AUC0–∞), clearance (CLtot), half-life (t1/2), volume of distribution (Vdss), mean residence time (MRT), and bioavailability (Fabs) were determined using classical equations. The compartmental analyses were performed using SCIENTIST v.2.0.1 software (MicroMath®, USA). One- and two-compartment models with or without weighting schemes were evaluated. The best model to fit the data was chosen based on the random distribution of residuals, the correlation coefficient, and the model selection criterion (MSC) given by the software.
The individual plasma profiles of LAP and LAP sodium salt after i.v. administration were best described by a two-compartmental open model. Plasma profiles after oral administration with two different doses of LAP and one dose of LAP sodium salt were best described by the one-compartmental model.
LAP concentration in plasma samples was determined by a validated (FDA, US Food and Drug Administration, 2001) UPLC-MS/MS method. Analyses were run on an Acquity UPLC BEH (Waters Acquity™) C18 column (2.1 × 50 mm, 1.7 μm particle size), with a flow of 300 μl/min at 35 °C. A gradient constituted of water (A) and acetonitrile (B) acidified with 0.1% acetic acid was used as follows: 0 min (90% A), 1 min (75% A), 7 min (50% A), 8.5 min (0% A) and 9.5 min (100% A). For the triple quadrupole, MS parameters were set as follows: capillary voltage (2.20 kV); extractor (3.0 V) source temperature (150 °C), desolvation temperature (300 °C), cone gas flow (50 l/h), and desolvation gas flow (700 l/h). For quantification, a multiple reaction monitoring method (MRM) was applied. For LAP, the transition of m/z 243 > 187 using cone energy of 24 V and collision energy of 19 V was determined as most appropriate for quantification (Calibration curves between 1 and 20,000 ng/ml of LAP, R > 0.99, low quantification limit of 1 ng/ml, and detection limit of 0.1 ng/ml).
A total of 200 μl cold acetonitrile containing internal standard (2-methyl-amino-lapachol) at 5 μg/ml and 0.05% trifluoroacetic acid was added to 100 μl of plasma and vortexed for 20 s. Precipitated protein was removed by centrifugation (6800 × g at 4 °C for 10 min). […]

[2] = test system: antigen-induced arthritis (AIA) in C57BL/6 mice; test: Antigen-induced arthritis (AIA); assay type: in vivo
[3] = 10 mg/kg orally, recall with mBSA 100 μg/ml for 96 h

CC(C)=CCC1=C(O)C(=O)c2ccccc2C1=O [LAP, 2-hydroxy-3-(3methyl-2-butenyl)-1,4-naphthoquinone]
toxicity (apoptotic cell death, annexin-V/PI) (human CD4 T cells): only the highest concentration of LAP (100 μM) was toxic
Ka ([1]; 10 mg/kg oral LAP, 1-Comp): 2.61 ± 0.85 h⁻¹
t1/2ß ([1]; 10 mg/kg oral LAP, 1-Comp): 4.2 ± 0.3 h
Fabs ([1]; 10 mg/kg oral LAP, NCA): 77%
l ([1]; 10 mg/kg oral LAP, NCA): 0.16 ± 0.01 h⁻¹
Ka ([1]; 25 mg/kg oral LAP, 1-Comp): 2.93 ± 0.79 h⁻¹
Vdss ([1]; 25 mg/kg oral LAP, 1-Comp): 0.24 ± 0.04 L/kg
t1/2ß ([1]; 25 mg/kg oral LAP, 1-Comp): 4.4 ± 0.6 h
Fabs ([1]; 25 mg/kg oral LAP, NCA): 65%
l ([1]; 25 mg/kg oral LAP, NCA): 0.19 ± 0.03 h⁻¹
AUC(0-inf) ([1]; 10 mg/kg, 10 mg/kg oral LAP, 1-Comp): 237 ± 20.2 µg·h/mL
AUC(0-inf) ([1]; 10 mg/kg, 10 mg/kg oral LAP, NCA): 217 ± 22 µg·h/mL
AUC(0-inf) ([1]; 25 mg/kg, 25 mg/kg oral LAP, 1-Comp): 434 ± 79.7 µg·h/mL
AUC(0-inf) ([1]; 25 mg/kg, 25 mg/kg oral LAP, NCA): 449 ± 78.1 µg·h/mL
k el ([1]; 10 mg/kg oral LAP, 1-Comp): 4.72e-05 s⁻¹
Cmax ([1]; 10 mg/kg oral LAP, NCA): 31600 ± 3800 ng/mL
MRT ([1]; 10 mg/kg oral LAP, NCA): 7.2 ± 0.6 h
Tmax ([1]; 10 mg/kg oral LAP, NCA): 1.2 ± 0.3 h
half-life ([1]; 10 mg/kg oral LAP, NCA): 3.2 ± 0.2 h
k el ([1]; 25 mg/kg oral LAP, 1-Comp): 4.44e-05 s⁻¹
Cmax ([1]; 25 mg/kg oral LAP, NCA): 65600 ± 10600 ng/mL
MRT ([1]; 25 mg/kg oral LAP, NCA): 7.2 ± 0.7 h
Tmax ([1]; 25 mg/kg oral LAP, NCA): 1.3 ± 0.4 h
half-life ([1]; 25 mg/kg oral LAP, NCA): 3.6 ± 0.5 h
leucocyte infiltration into the knee joint ([2]; 10 mg/kg orally once a day over 9 days, 6 h after mBSA challenge): remarkable reduction in leucocyte infiltration
serum levels of anti-mBSA total IgG ([2]; 10 mg/kg orally once a day over 9 days, day 21): did not find differences
mBSA-specific production of IFN-γ by draining lymph node cells and splenocytes [2, 3]: significantly reduced
mBSA-specific production of IL-17 by draining lymph node cells and splenocytes [2, 3]: significantly reduced
